Data reported in publication PMC6611227 (Frontiers in Microbiology, 2019).
Like-named read-outs stand apart in the source and are kept apart here.

B1: StDHODH (dihydroorotate dehydrogenase) (Solanum tuberosum; I273V/I299V/P120T/P359Q) (protein)
chain: ASTVDEATFCGWLFSATKLVNPFFAFLDPEVAHRLAVSAAARGWVPREKRTDLPILGLDVWGRRFSNPVGLAAGFDKNAEAVEGLLGLGFGFVEVGSVTPIPQEGNPKPRIFRLPNEGALINRCGFNSEGIVAVAKRLGAQHGKRKLETSSTSSPAGDEVKHGGKAGPGILGVNLGKNKTSEDAAADYVQGVHTLSQYADYLVVNISSPNTPGLRQLQGRKQLKDLVKKVQAARDEMQWGEEGPPPLLVKIAPDLSKQDLEDIAAVALALRVDGLIISNTTIQRPDSVSQNPVAQETGGLSGKPLFNMSTNILKEMYLLTKGRIPLIGCGGISSGEDAYKKIRAGATLVQLYTAFGYGGPALIPNIKAELAHCLEKDGYKSVHEAVGADCR

Assays:
[1] = molecular target: T1, PiDHODH (dihydroorotate dehydrogenase) (Phytophthora infestans, UniProt D0MUE3); experiment: biochemical; conditions: read-out: Activity % PiDHODH
T1 construct: gene PITG_01913

[2] = system: O=C1C[C@@H](C(=O)O)NC(=O)N1; experiment: purified protein
[3] = molecular target: T1, PiDHODH (dihydroorotate dehydrogenase); experiment: biochemical
[4] = substrate: O=C1C[C@@H](C(=O)O)NC(=O)N1; experiment: purified protein; conditions: FMN orotate/dihydroorotate site in the α/β-barrel domain

T1 sequence (D0MUE3 55-424 limits assumed): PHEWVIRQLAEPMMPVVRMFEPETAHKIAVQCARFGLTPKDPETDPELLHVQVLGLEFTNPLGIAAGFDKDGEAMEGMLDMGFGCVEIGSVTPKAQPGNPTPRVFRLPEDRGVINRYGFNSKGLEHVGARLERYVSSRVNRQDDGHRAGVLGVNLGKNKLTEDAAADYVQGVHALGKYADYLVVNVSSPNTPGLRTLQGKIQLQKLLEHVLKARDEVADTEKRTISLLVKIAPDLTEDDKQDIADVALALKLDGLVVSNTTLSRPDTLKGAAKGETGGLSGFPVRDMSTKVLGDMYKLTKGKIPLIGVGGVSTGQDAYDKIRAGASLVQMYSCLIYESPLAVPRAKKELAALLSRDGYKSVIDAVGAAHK

| Molecule | activity at 500 µM [1] | further results |
| --- | --- | --- |
| O=C1C(O)=C(CC=C(Cl)Cl)C(=O)c2ccccc21 [dichloroallyl lawsone] | 30 ± 2% | – |
| PiDHODH (dihydroorotate dehydrogenase) (Phytophthora infestans T30-4) | – | Km [2]: 57 ± 3 µM |
| O=C(O)C1=C(C(=O)Nc2ccc(-c3ccccc3)cc2)CCC1 [compound 1, 2-(4-biphenylylcarbamoyl)-1-cyclopentene-1-carboxylic acid] | 23 ± 4% | – |
| COc1c(-c2ccccc2)ccc(NC(=O)C(C#N)=C(C)O)c1Cl [compound 19, N-(3-chloro-2-methoxybiphenyl-4-yl)-2-cyano-3-hydroxybut-2-enamide] | 2 ± 0.5% | – |
| COc1cc(-c2ccc(Nc3ccccc3C(=O)O)c(OC)c2)ccc1Nc1ccccc1C(=O)O [Redoxal] | 31 ± 8% | – |
| Cc1cc(Nc2cc(F)c(C(F)(F)F)c(F)c2)n2ncnc2n1 [DSM190, N-(3,5-difluoro-4-(trifluoromethyl)phenyl)-5-methyl-[1,2,4]triazolo[1,5-a]pyrimidin-7-amine] | 36 ± 10% | – |
| CC(O)=C(C#N)C(=O)Nc1ccc(-c2ccccc2)cc1Cl [compound 28, N-(3-chlorobiphenyl-4-yl)-2-cyano-3-hydroxybut-2-enamide] | 1 ± 0.7% | – |
| C/C(O)=C(\C#N)C(=O)Nc1ccc(C(F)(F)F)cc1 [A77 1726] | – | IC50 [3]: 79 ± 8 µM |
| B1 | – | Km [4]: 20 ± 1 µM |
